Test results: publication PMC12767113, “EM2, a Natural Product MST1/2 Kinase Activator, Suppresses Non‐Small Cell Lung Cancer via Hippo Pathway Activation” (Advanced Science, 2025)

How the values were obtained:
MST1-GFP = target: T1, MST1-GFP (Homo sapiens, UniProt Q13043); test: microscale thermophoresis; conditions: A549 cell lysate; GFP fusion as fluorophore; constant, if any, only in figure
T1 construct: gene STK4; GFP-tagged MST1 expressed from plasmid in A549 cells, RIPA lysate
T1 sequence (Q13043 1-487): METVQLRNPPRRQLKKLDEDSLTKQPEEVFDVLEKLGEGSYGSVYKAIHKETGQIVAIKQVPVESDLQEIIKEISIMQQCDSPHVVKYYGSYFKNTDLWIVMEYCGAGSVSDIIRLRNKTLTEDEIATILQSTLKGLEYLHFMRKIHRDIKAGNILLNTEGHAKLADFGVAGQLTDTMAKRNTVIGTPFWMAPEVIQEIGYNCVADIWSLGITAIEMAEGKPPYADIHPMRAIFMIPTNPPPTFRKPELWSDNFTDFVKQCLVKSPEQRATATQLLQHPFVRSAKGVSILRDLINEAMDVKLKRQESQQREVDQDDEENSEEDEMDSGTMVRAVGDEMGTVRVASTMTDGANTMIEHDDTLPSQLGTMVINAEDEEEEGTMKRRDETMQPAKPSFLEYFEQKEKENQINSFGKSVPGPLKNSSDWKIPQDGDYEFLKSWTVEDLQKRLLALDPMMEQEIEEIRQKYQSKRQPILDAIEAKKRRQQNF
Source text: microscale thermophoresis on MST1-GFP | Microscale thermophoresis confirmed dose‐dependent binding affinity (Figure 1H)

MST1 [1] = target: T2, MST1 (Homo sapiens, UniProt Q13043); test: CETSA (immunoblot), H520 and A549 cells; assay type: cell-based; parameters: gene STK4; endogenous protein in A549 and H520 cells, detected by immunoblot (antibody CST #3682); conditions: 42-56 °C, 3 min; supported by DARTS (50 and 100 µM, Pronase)
T2 sequence (Q13043 1-487): T1 sequence (Q13043 1-487)

MST1 [2] = target: T2, MST1; test: ADP-Glo kinase assay; assay type: biochemical; parameters: gene STK4; isolated MST1 protein (ITC) and "active MST1" (ADP-Glo); conditions: activator; ATP and MOB1a substrate; 25 °C, 30 min
MST1 [3] = target: T2, MST1; test: isothermal titration calorimetry; assay type: binding; parameters: gene STK4; isolated MST1 protein (ITC) and "active MST1" (ADP-Glo); conditions: 25 °C; 50 mM HEPES pH 7.5, 150 mM NaCl, 2 mM DTT

Kd (MST1-GFP): 1.79 ± 1.69 µM
Kd (MST1 [3]): 1.97 ± 1.02 µM
SMILES: C=C(C)C(=O)OC1CC(C)=CC2(OC)C=C(C)C(O2)C2OC(=O)C(=C)C12 (stereo not shown) [EM2]
CETSA (immunoblot), H520 and A549 cells (MST1 [1]): CETSA demonstrated that EM2 enhanced MST1 thermal stability
kinase activity (MST1 [2]): functions through its kinase activity, which significantly increased with EM2 concentration (Figure 1J)
